Laboratory results from patent US6277867A, “Pesticide compounds, compositions and process for the preparation thereof” (priority 1995, dated 2001).

How the values were obtained:
[1] = tested on: two-spotted spider mite (Tetranychus urticae); assay: Synergist activity of compound 599 against two-spotted spider mite; format: in vivo; details: 24 h
Method: From the first pair of leaves of a 1 week old bean plant leaf-discs of […] diameter were cut which were treated by dipping them (5 min) into the test solution consisting of the active ingredient and the synergist in definite concentrations. For the preparation of the stock solutions of required concentration, 10% acetone as co-solvent and 0.1% Tween-80 as detergent were applied. The dried leaf-discs were placed on wet surface and they were infected with […]-up female mites per leaf. […] The experiment was performed in 4 replica.
Synergist activity of compound 599 with various specific acaricides was investigated against two-spotted spider mite (Tetranychus urticae), by the method described in Example 8.

[2] = tested on: resistant house fly, IX strain; assay: Synergistic activity on resistant house fly, IX strain; format: in vivo, Musca domestica; details: active ingredient alone
Method: (§1) Investigation of Synergistic Activity on Resistant House Fly (Musca domestica) Populations
(§2) Investigation was carried out as described in biological Example 1. LD50 values and synergist ratios were determined as given in Example 2.

[3] = tested on: resistant house fly, INSEL strain; assay: Synergistic activity on resistant house fly, INSEL strain; format: in vivo, Musca domestica; details: active ingredient alone
Method: as §1, §2

[4] = tested on: two-spotted spider mite (Tetranychus urticae); assay: Synergism of acaricidal effect on two-spotted spider mite (leaf-disc dip); format: in vivo; details: 48 h
Method: Synergism of Acaricidal Effect Investigated on Two-spotted Spider Mite (Tetranychus urticae)
From the first pair of leaves of a 1 week old bean plant leaf-discs of […] diameter were cut which were treated by dipping them (5 min) into the test solution consisting of the active ingredient and the synergist in definite concentrations. For the preparation of the stock solutions of required concentration, 10% acetone as co-solvent and 0.1% Tween-80 as detergent were applied. The dried leaf-discs were placed on wet surface and they were infected with […]-up female mites per leaf. After 48 hours the mortality was recorded using microscope and a brush. The experiment was performed in 4 replica.

[5] = tested on: pea aphid (Acyrthosiphon pisun); assay: Synergist activity against pea aphid, field trial; format: in vivo; details: two days after treatment
Method: Synergist Activity Against Pea Aphid (Acyrthosiphon pisun)
Synergist activity of compound No. 599 was tested against pea aphid (Acyrthosiphon pisun) in field trials on small plots (10 m^2). 300 l/ha spray volume was applied using motoric sprayer (Maruyama). Efficacy was expressed by the average number of aphids/leaf before, and two days after the treatment, respectively. (Henderson and Tilton: J. Econ. Entomol., 48:157, 1955).

[6] = tested on: house fly (Musca domestica); assay: Effect of the active ingredient:synergist ratio on the synergistic activity (flies)
Method: Effect of the Active Ingredient:Synergist Ratio on the Synergistic Activity
Treatment was performed as described in Example 1. using Hamilton MicroLab P microdispenser. In two parallel experiments 10 female -3 day old flies were treated on the ventral side of their thorax with 0.2 μl test solution. Beside 1000-400-200-80 ng/fly fixed doses of the synergist they were treated with constant 20 ng/fly CARBOFURAN®. Selection and counting of the flies were performed under the action of CO2. After treatment the flies were kept in plastic cups covered with tulle. After 24 hours mortality % was recorded. Depending on the results the experiments were performed in 2-4 replica.

[7] = tested on: house fly (Musca domestica); assay: Effect on fecundity, on house fly; format: in vivo; details: 500 ppm in granulated sugar, 48 hours feeding; eggs of next 10 days
Method: Investigation of the Effect on Fecundity, on House Fly (Musca domestica)
Groups consisting of freshly hatched 50 male and 50 female flies were fed during 48 hours with granulated sugar comprising 500 ppm of material No. 441 and 484 of the present invention respectively, and the eggs layed on the next 10 days were raised. The fecundity-hindering effect was expressed as the quotient of the emerged flies in the treated and untreated groups. The experiments were performed in 4 replica.

[8] = tested on: house fly (Musca domestica); details: in vivo, topical_or_ocular, 1440 min
Method: Investigation of Synergistic Activity on House Fly (Musca domestica) Following Topical Application
In two parallel experiments 10 female. 2-4 day old house flies were treated on the vental side of their thorax with 0.2 μl of the test solution, with the help of Hamilton MicroLab P microdispenser. Beside fixed synergist dose of 1000 ng/fly the animals were treated with carbofuran at a dose of 20 ng/fly. For solvent cellosolve was used. Selection and counting of the flies were performed under the action of CO2. After treatment the flies were kept in plastic cups covered with tulle. Mortality after 24 hours was expressed in %.

flies = assay: Comparative investigations with known reference synergists on flies treated with carbofuran; format: in vivo; details: flies treated with carbofuran and 1000 ng of the synergist
Text: These SR50 ratios were compared to those of the new compounds prepared by us.

[9] = tested on: cotton bollworm (Helicoverpa armigera); assay: Synergistic activity on cotton bollworm following topical application; details: in vivo
Method: Investigation of Synergistic Activity on Cotton Bollworm (Helicoverpa armigera) Following Topical Application
Treatment was performed similarity as described in Example 1. but L2 stadium grubs of cotton bollworms (Helicoverpa armigera) were treated as test animals. From the 24 hour dose--mortality data the LD50 (ng/grub) values were determined using probit analysis. None of the synergists acted at the applied 1000 ng/grub dose. Synergist ratio was calculated as the quotient of the LD50 values of carbofuran administered alone, and with the synergist. The experiments were performed in 2-4 replica.

mammals = details: cited from earlier work

In the case of `CNC(=O)Oc1cccc2c1OC(C)(C)C2` [CARBOFURAN, reference compound], the LC50 [1] is reported as 164 µg/mL, the LD50 [2] is reported as > 100000 ng/fly and the LD50 [3] is reported as 15375 ng/fly. It also gave a mortality at 31 ppm [4] of 13%, a mortality at 62 ppm [4] of 39% and a mortality at 125 ppm [4] of 44%. For the same compound, the mortality at 250 ppm [4] was 81%, the mortality at 500 ppm [4] was 90% and the “E (%)” value ([5]; dose 110 act. ingr./ha) was 98.0%. The “E (%)” value ([5]; dose 160 act. ingr./ha) was 99.1%.
In the case of `CC#CCOCc1ccc2c(c1)OCO2` [Compound 441, 5-[(But-2-ynyloxy)-methyl]-1,3-benzodioxole], the “24 hour mortality (%)” value ([6]; carbofuran 20 ng/fly + synergist 80 ng/fly) is reported as 62%, the “24 hour mortality (%)” value ([6]; carbofuran 20 ng/fly + synergist 200 ng/fly) is reported as 67% and the “24 hour mortality (%)” value ([6]; carbofuran 20 ng/fly + synergist 400 ng/fly) is reported as 90%. The “24 hour mortality (%)” value ([6]; house fly, in vivo, topical_or_ocular) was 95%, the “Hindering effect on fecundity” value [7] was 87% and the mortality % [8] was 97%. For the same compound, the “Synergist ratio SR50” value (flies) was 25.70 and the Synergist ratio [9] was > 5.
In the case of `CC#CCOC(c1ccc2c(c1)OCO2)C(C)C` (stereo not shown) [Compound 484, 5-[2-Methyl-1-(2-butynyloxy)-propyl]-1,3-benzodioxole], the “Hindering effect on fecundity” value [7] is reported as 90%, the mortality % [8] is reported as 63% and the Synergist ratio [9] is reported as > 5.
For `CCCCOCCOCCOCc1cc2c(cc1CCC)OCO2` [PBO], the tumor provoking effect (mammals) is listed as “suspected tumor provoking effect”.
